Laboratory results as given in patent publication US10508123B2, “Polymorphs” (Vectura Limited, priority 2015, dated 2019).

Tests used:
[1] = Solubility of the compound in water (remark in the slurrying results); format: physicochemical
[2] = Competitive slurrying experiments (solid form by XRPD after one week); format: physicochemical
Experimental: 10 mg (+/−1 mg) each of the Form I, Form II, Form III, 1,2-dimethoxtethane solvate and the hydrate of (S)-3-(3-(1-methyl-2-oxo-5-(pyrazolo[1,5-a]pyridine-3-yl)-1H-imidazo[4,5-b]pyridine-3(2H)-yl)piperidin-1-yl)-3-oxopropanenitrile was added to each of twelve vials. The solvent systems used had been pre-saturated with (S)-3-(3-(1-methyl-2-oxo-5-(pyrazolo[1,5-a]pyridine-3-yl)-1H-imidazo[4,5-b]pyridine-3(2H)-yl)piperidin-1-yl)-3-oxopropanenitrile by shaking a slurry of Form I at the relevant temperature for 16 hours and then passing through a 1 μm glass filter.
The resulting slurries were agitated at the temperature shown for a period of one week. The solids present were then isolated by filtration, air dried and characterised by XRPD.

With `Cn1c(=O)n([C@H]2CCCN(C(=O)CC#N)C2)c2nc(-c3cnn4ccccc34)ccc21` [Compound (I), (S)-3-(3-(1-methyl-2-oxo-5-(pyrazolo[1,5-a]pyridine-3-yl)-1H-imidazo[4,5-b]pyridine-3(2H)-yl)piperidin-1-yl)-3-oxopropanenitrile] the solubility in water [1] was “poor solubility”, the XRPD characterisation ([2]; vial 1, water, 5 °C, slurry of Form I, II, III, 1,2-dimethoxyethane solvate and hydrate agitated one week, poor recovery hampered interpretation) was “Form II/Hydrate*” and the XRPD characterisation ([2]; vial 2, water, 25 °C, mixed-form slurry, one week) was “Form II/Form III/Hydrate”. The XRPD characterisation ([2]; vial 3, water, 50 °C, mixed-form slurry, one week) was “Form II”, the XRPD characterisation ([2]; vial 4, MEK, 5 °C, mixed-form slurry, one week) was “Form II” and the XRPD characterisation ([2]; vial 5, MEK, 25 °C, mixed-form slurry, one week) was “Form II”. The XRPD characterisation ([2]; vial 6, MEK, 50 °C, mixed-form slurry, one week) was “Form II”, the XRPD characterisation ([2]; vial 7, EtOAc, 5 °C, mixed-form slurry, one week) was “Form II/1,2-dimethoxyethane solvate” and the XRPD characterisation ([2]; vial 8, EtOAc, 25 °C, mixed-form slurry, one week) was “Form II/1,2-dimethoxyethane solvate”. The XRPD characterisation ([2]; vial 9, EtOAc, 50 °C, mixed-form slurry, one week) was “Form II”, the XRPD characterisation ([2]; vial 10, IPA, 5 °C, mixed-form slurry, one week) was “Form II” and the XRPD characterisation ([2]; vial 11, IPA, 25 °C, mixed-form slurry, one week) was “Form II/1,2-dimethoxyethane solvate”. For the same compound, the XRPD characterisation ([2]; vial 12, IPA, 50 °C, mixed-form slurry, one week) was “Form II”.
For `Cn1c(=O)n([C@H]2CCCN(C(=O)CC#N)C2)c2nc(-c3cnn4ccccc34)ccc21` [Form I, (S)-3-(3-(1-methyl-2-oxo-5-(pyrazolo[1,5-a]pyridine-3-yl)-1H-imidazo[4,5-b]pyridine-3(2H)-yl)piperidin-1-yl)-3-oxopropanenitrile], the “form visible in the isolated solids” value ([2]; all vials, except one of the experiments in water) was “No Form I or Form III material was visible”.
For `Cn1c(=O)n([C@H]2CCCN(C(=O)CC#N)C2)c2nc(-c3cnn4ccccc34)ccc21` [Form II, (S)-3-(3-(1-methyl-2-oxo-5-(pyrazolo[1,5-a]pyridine-yl)-1H-imidazo[45-b]pyridine-3(2H)-yl)piperidin-1-yl)-3-oxopropanenitrile], the “thermodynamic stability among the three anhydrous forms” value ([2]; at all three temperatures evaluated (5, 25, 50 °C)) was “most thermodynamically stable”, the “thermodynamic stability compared to the other polymorphic forms or the solvates and hydrates” value ([2]; at temperatures up to 50 °C) was “greater thermodynamic stability” and the “thermodynamic stability compared to the Form 1 and Form III polymorphs” value ([2]; competitive slurrying experiments) was “surprisingly advantageous thermodynamic stability”.
For `Cn1c(=O)n([C@H]2CCCN(C(=O)CC#N)C2)c2nc(-c3cnn4ccccc34)ccc21` [Hydrate I, (S)-3-(3-(1-methyl-2-oxo-5-(pyrazolo[1,5-a]pyridine-3-yl)-1H-imidazo[4,5-b]pyridine-3(2H)-yl)piperidin-1-yl)-3-oxopropanenitrile], the “stability of the hydrate relative to anhydrous Form II” value ([2]; in organic solvents) was “less stable than the anhydrous Form II” and the “conversion of the hydrate in the slurry” value ([2]; water at 50 °C, not at 25 °C or 5 °C) was “complete conversion to Form II”.
